The source of these data is US20240189289A1, “INHIBITORS OF EPHB3 SIGNALING” (The Brigham and Women`s Hospital, Inc., priority 2021, published 2024).

Series [1] in a line: Aqueous solubility. The series is classed as physicochemical. The following applies: aqueous solution, aqueous buffer; oxalate salt, pH 7.4; read-out: aqueous solubility of the oxalate salt.
The test system of series [2] is neonatal murine astrocytes. Briefly: Neonatal murine astrocytes activated with TNFα and IL-1β: qPCR and ELISA. It counts as cell-based, mouse. Here is the method: Mouse primary astrocyte cultures. […] The cell suspension was then cultured at 37° C. in humidified 5% CO2 on poly-L-Lysine (#P4707, Sigma-Aldrich) pre-coated cell culture flasks. Medium was replaced every 3-5 days. The cells reached confluence after 7-10 days. Microglia were separated by shaking the glia culture at 225 rpm at 37° C. for at least 3 h and washing extensively with 1×PBS. Astrocytes were detached by mild trypsinization with Trypsin-EDTA (0.05%) at 37° C. and plated. […] Both cell types were then cultured separately for downstream procedures. […] Finally, microglia and astrocytes of each condition where magnetically separated as before and lysed for downstream gene expression analysis.
RNA isolation, cDNA synthesis and qPCR. […] Data were analyzed by the ddCt method by normalizing the expression of each gene to GAPDH and HPRT for mouse and GAPDH for human and then to the control group. All probes are listed below. • Mouse: EphB3 Mm00802553_m1, Ccl2 Mm00441242_m1, Csf2 Mm01290062_m1, Nos2 Mm00440502_m1, Tnf Mm00443258 m1, Il1b Mm00434228_m1, 116 Mm00446190_m1, GAPDH Mm99999915_g1. • Human: CCL2 Hs00234140_m1, CSF2 Hs00929873 ml, NOS2 Hs01075529_m1, TNF • Hs00174128_m1, IL6 Hs00985639_m1, IL1b Hs01555410_m1, GAPDH Hs02758991_g1.

Series [3] concerns the target T1, EphB3 (Homo sapiens, UniProt P54753).
T1 sequence (P54753 34-998): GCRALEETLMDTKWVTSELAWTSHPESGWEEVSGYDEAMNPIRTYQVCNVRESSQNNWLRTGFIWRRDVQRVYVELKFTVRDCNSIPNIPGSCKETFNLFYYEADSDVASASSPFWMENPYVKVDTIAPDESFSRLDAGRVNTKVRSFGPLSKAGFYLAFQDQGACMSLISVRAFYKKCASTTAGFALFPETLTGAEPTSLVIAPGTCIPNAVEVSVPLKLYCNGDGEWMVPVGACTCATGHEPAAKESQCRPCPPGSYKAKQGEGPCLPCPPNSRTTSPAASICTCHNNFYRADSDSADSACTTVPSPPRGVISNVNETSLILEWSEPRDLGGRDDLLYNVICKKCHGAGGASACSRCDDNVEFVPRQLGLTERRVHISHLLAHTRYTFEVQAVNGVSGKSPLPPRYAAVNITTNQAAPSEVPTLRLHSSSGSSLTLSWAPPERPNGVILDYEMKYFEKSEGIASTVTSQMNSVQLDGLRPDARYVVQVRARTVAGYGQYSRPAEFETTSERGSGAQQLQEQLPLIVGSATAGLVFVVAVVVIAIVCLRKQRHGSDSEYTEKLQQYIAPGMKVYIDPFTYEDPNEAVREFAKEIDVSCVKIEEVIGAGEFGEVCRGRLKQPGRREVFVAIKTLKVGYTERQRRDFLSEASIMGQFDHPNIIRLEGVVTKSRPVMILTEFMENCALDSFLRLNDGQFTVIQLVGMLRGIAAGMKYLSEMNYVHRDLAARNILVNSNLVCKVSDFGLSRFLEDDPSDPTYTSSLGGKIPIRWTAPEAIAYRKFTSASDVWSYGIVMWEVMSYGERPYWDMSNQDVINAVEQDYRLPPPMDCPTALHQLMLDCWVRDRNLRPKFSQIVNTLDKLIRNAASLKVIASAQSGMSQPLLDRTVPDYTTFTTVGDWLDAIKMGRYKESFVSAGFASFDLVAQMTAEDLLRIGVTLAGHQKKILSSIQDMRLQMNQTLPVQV
Briefly: EphB3 radiometric kinase activity assay (33P ATP filter binding). The series is classed as biochemical. The following applies: FIG. 1C. Here is the method: EphB3 radiometric kinase activity assay. To study the EphB3 kinase activity, a radioactive filter binding assay using 33P ATP was performed as described at the […] International Centre for Kinase profiling. […] The mix was harvested onto P81 filter plates and counts were read on a Topcount NXT.

The test system of series [4] is astrocytes. Briefly: Cytotoxicity (LDH release) and apoptosis (caspase-3/7) assay. It counts as cell-based. Here is the method:
Cytotoxicity and apoptosis assay. Compound cytotoxicity was inferred by quantifying Lactate Deshidrogenase (LDH) release to the cells supernatants after 24 h using the CytoTox 96© Non-Radioactive Cytotoxicity Assay, (Promega #G1780) following by manufacturer's protocol. […] Briefly cells were washed with 0.5% BSA, 2 mM EDTAin 1×PBS and incubated with surface antibodies and a live/dead cell marker on ice for 30 minutes. After, cells were washed and following staining for Caspase-3/7 according the manufacturer's instructions (Invitrogen, #C10427).

The nature of series [5]: Preliminary in vivo pharmacokinetic evaluation, IP, plasma and brain concentrations. Also on record: species or system Sprague-Dawley rats.
The subject of series [6] is splenic CD11b+ monocytes. Kind of series: Monocyte migration assay with astrocyte-conditioned medium. The following applies: ACM from astrocytes pre-treated with compound. The series is classed as cell-based, mouse. The method, then:
Generation of astrocyte-conditioned medium (ACM). […] After 24 h, cells were extensively washed with 1×PBS, and incubated with fresh astrocyte complete medium for 48 h. Supernatants were spun down and kept at −80° C. until tested in migration and neurotoxicity assays.
Monocyte Migration Assay. Monocytes were purified from spleens from C57BL/6J mice using CD11b Microbeads (#130-049-601, Miltenyi) following the manufacturer's instructions. 100,000 monocytes were seeded in the upper chamber of a 24-well cell culture transwell, with a 5 μm pore size (#3421, Thermo Fisher Scientific), containing 300 μL of astrocyte-conditioned medium (as detailed earlier) in the bottom chamber. After 3 h incubation at 37° C. in 5% CO2, cells were collected from the lower chamber after shaking and accutase solution incubation (#A6964, Sigma-Aldrich) and quantified by FACS.

For the compound `O=C(Nc1ccccc1Cl)c1cnc2ccc(C3CCNCC3)cn12` [A38], the solubility in series [1] is greater than 10000 µg/mL. In addition, in series [2], the “116 expression in astrocytes (qPCR)” value was “reduced 116 expression in astrocytes in a dose-dependent manner”, the “production of CCL2 (ELISA)” value was “decreased”, the “production of IL-6 (ELISA)” value was “decreased” and the “production of TNFα (ELISA)” value is reported as “decreased”. Besides, the “EphB3 tyrosine kinase activity in a cell-free assay” value in series [3] is given as “inhibited EphB3 tyrosine kinase activity in a dose-dependent manner”. Moreover, the “cytotoxicity (LDH release)” value in series [4] (FIG. 1B) is reported as “did not induce cytotoxicity”. Further, in series [4] (FIG. 7A), the “apoptosis (caspase-3/7 activation)” value was “did not induce cytotoxicity or apoptosis”. Besides, the “brain Cmax” value in series [5] (IP 3 mg/kg in 100% saline, male Sprague-Dawley rats, mono-oxalate salt) was found to be 331 ng/mL. Moreover, the Pgp substrate result in series [5] (inferred from the brain to plasma ratio) is “not a Pgp substrate”. Also, the Kp in series [5] (rat, brain/plasma, IP 3 mg/kg, male Sprague-Dawley rats, mono-oxalate salt, read-out: brain to plasma ratio) was found to be 1.5. Besides, the Cmax in series [5] (rat, plasma, IP 3 mg/kg in 100% saline, male Sprague-Dawley rats, mono-oxalate salt) was found to be 221 ng/mL. Besides, the half-life in series [5] (rat, plasma, IP 3 mg/kg in 100% saline, male Sprague-Dawley rats, mono-oxalate salt, read-out: plasma half-life T1/2 (converted)) is 2.25 h. Also, the ACM chemoattractant activity entry in series [6] is “reduced ACM neurotoxic and chemoattractant activity”.
